Reference: PubChem BioAssay AID2060885 (Molecular Pharmacology Branch, DTP, NCI, 2025)

System: NCI-H23 complex spheroids with HUVEC/MSC, viability
Assay: Anticancer human tumor NCI-H23 cell line growth inhibition [RAS];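 further: spheroids exposed to compound for 7 days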;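 on viability, T/C: 100% = DMSO vehicle control viability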
Details: for IC50: curve of first compound; for viability, T/C: stronger effect = lower value
Method in brief: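 Agents were tested in combination matrices in half-log decrements from a top concentration at or near clinical Cmax (10 microM if undetermined). Targets were multi-cell spheroids of tumour lines plus HUVEC and MSC stromal cells.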

[1] = second compound 0.0316 µM, first compound 0.0316 µM
[2] = second compound 0.0316 µM, first compound 0.1 µM
[3] = second compound 0.0316 µM, first compound 0.316 µM
[4] = second compound 0.0316 µM, first compound 1 µM
[5] = second compound 0.0316 µM, first compound 3.16 µM
[6] = second compound 0.0316 µM, first compound 10 µM
[7] = second compound 0.1 µM, first compound 0.0316 µM
[8] = second compound 0.1 µM, first compound 0.1 µM
[9] = second compound 0.1 µM, first compound 0.316 µM
[10] = second compound 0.1 µM, first compound 1 µM
[11] = second compound 0.1 µM, first compound 3.16 µM
[12] = second compound 0.1 µM, first compound 10 µM
[13] = second compound 0.316 µM, first compound 0.0316 µM
[14] = second compound 0.316 µM, first compound 0.1 µM
[15] = second compound 0.316 µM, first compound 0.316 µM
[16] = second compound 0.316 µM, first compound 1 µM
[17] = second compound 0.316 µM, first compound 3.16 µM
[18] = second compound 0.316 µM, first compound 10 µM
[19] = second compound 1 µM, first compound 0.0316 µM
[20] = second compound 1 µM, first compound 0.1 µM
[21] = second compound 1 µM, first compound 0.316 µM
[22] = second compound 1 µM, first compound 1 µM
[23] = second compound 1 µM, first compound 3.16 µM
[24] = second compound 1 µM, first compound 10 µM

CCC(CC)c1cc(NC2CCC(N)C2)n2nccc2n1 (stereo unspecified) + CCn1c(-c2cccnc2C(C)OC)c2c3cc(ccc31)N1CCOC(CC(NC(=O)C(C(C)C)N(C)C(=O)C3(F)CCN(C(=O)C#CC(C)(C)N(C)C)CC3)C(=O)N3CCCC(N3)C(=O)OCC(C)(C)C2)C1
IC50 (second compound 0.000949 µM): < 31.6 nM
IC50 (second compound 0.003 µM): < 31.6 nM
IC50 (second compound 0.00949 µM): < 31.6 nM
IC50 (second compound 0.03 µM): < 31.6 nM
IC50 (second compound 0.0949 µM): < 31.6 nM
IC50 (second compound 0.3 µM): < 31.6 nM
viability, T/C (second compound 0.000949 µM, first compound 0.0316 µM): 32.7%
viability, T/C (second compound 0.000949 µM, first compound 0.1 µM): 33.7%
viability, T/C (second compound 0.000949 µM, first compound 0.316 µM): 24.4%
viability, T/C (second compound 0.000949 µM, first compound 1 µM): 28%
viability, T/C (second compound 0.000949 µM, first compound 3.16 µM): 3.12%
viability, T/C (second compound 0.000949 µM, first compound 10 µM): 0.38%
viability, T/C (second compound 0.003 µM, first compound 0.0316 µM): 27.1%
viability, T/C (second compound 0.003 µM, first compound 0.1 µM): 25.2%
viability, T/C (second compound 0.003 µM, first compound 0.316 µM): 28.3%
viability, T/C (second compound 0.003 µM, first compound 1 µM): 25.9%
viability, T/C (second compound 0.003 µM, first compound 3.16 µM): 1.84%
viability, T/C (second compound 0.003 µM, first compound 10 µM): 0.31%
viability, T/C (second compound 0.00949 µM, first compound 0.0316 µM): 27.7%
viability, T/C (second compound 0.00949 µM, first compound 0.1 µM): 25.1%
viability, T/C (second compound 0.00949 µM, first compound 0.316 µM): 31.2%
viability, T/C (second compound 0.00949 µM, first compound 1 µM): 25.8%
viability, T/C (second compound 0.00949 µM, first compound 3.16 µM): 1.37%
viability, T/C (second compound 0.00949 µM, first compound 10 µM): 0.37%
viability, T/C (second compound 0.03 µM, first compound 0.0316 µM): 25.3%
viability, T/C (second compound 0.03 µM, first compound 0.1 µM): 28.2%
viability, T/C (second compound 0.03 µM, first compound 0.316 µM): 28%
viability, T/C (second compound 0.03 µM, first compound 1 µM): 25.3%
viability, T/C (second compound 0.03 µM, first compound 3.16 µM): 0.57%
viability, T/C (second compound 0.03 µM, first compound 10 µM): 0.34%
viability, T/C (second compound 0.0949 µM, first compound 0.0316 µM): 25.7%
viability, T/C (second compound 0.0949 µM, first compound 0.1 µM): 25.3%
viability, T/C (second compound 0.0949 µM, first compound 0.316 µM): 28.1%
viability, T/C (second compound 0.0949 µM, first compound 1 µM): 24.1%
viability, T/C (second compound 0.0949 µM, first compound 3.16 µM): 0.71%
viability, T/C (second compound 0.0949 µM, first compound 10 µM): 0.48%
viability, T/C (second compound 0.3 µM, first compound 0.0316 µM): 22.5%
viability, T/C (second compound 0.3 µM, first compound 0.1 µM): 24.1%
viability, T/C (second compound 0.3 µM, first compound 0.316 µM): 27.1%
viability, T/C (second compound 0.3 µM, first compound 1 µM): 20.8%
viability, T/C (second compound 0.3 µM, first compound 3.16 µM): 0.58%
viability, T/C (second compound 0.3 µM, first compound 10 µM): 0.67%

CC(C)NCC(C(=O)N1CCN(c2ncnc3c2C(C)CC3O)CC1)c1ccc(Cl)cc1 (stereo unspecified) + C=CC(=O)N1CCN(c2nc(OCC3CCCN3C)nc3c(F)c(-c4nc(N)cc(C)c4C(F)(F)F)c(Cl)cc23)C(C)C1
IC50 (second compound 0.00316 µM): 548 nM
IC50 (second compound 0.01 µM): 85.9 nM
IC50 (second compound 0.0316 µM): < 31.6 nM
IC50 (second compound 0.1 µM): < 31.6 nM
IC50 (second compound 0.316 µM): < 31.6 nM
IC50 (second compound 1 µM): < 31.6 nM
viability, T/C (second compound 0.00316 µM, first compound 0.0316 µM): 57.1%
viability, T/C (second compound 0.00316 µM, first compound 0.1 µM): 67.7%
viability, T/C (second compound 0.00316 µM, first compound 0.316 µM): 51.7%
viability, T/C (second compound 0.00316 µM, first compound 1 µM): 45.4%
viability, T/C (second compound 0.00316 µM, first compound 3.16 µM): 33.4%
viability, T/C (second compound 0.00316 µM, first compound 10 µM): 29.2%
viability, T/C (second compound 0.01 µM, first compound 0.0316 µM): 52.5%
viability, T/C (second compound 0.01 µM, first compound 0.1 µM): 54.5%
viability, T/C (second compound 0.01 µM, first compound 0.316 µM): 39.5%
viability, T/C (second compound 0.01 µM, first compound 1 µM): 37%
viability, T/C (second compound 0.01 µM, first compound 3.16 µM): 28.4%
viability, T/C (second compound 0.01 µM, first compound 10 µM): 20%
viability, T/C [1]: 39.1%
viability, T/C [2]: 48.1%
viability, T/C [3]: 31.2%
viability, T/C [4]: 30.2%
viability, T/C [5]: 24.3%
viability, T/C [6]: 16.9%
viability, T/C [7]: 39.3%
viability, T/C [8]: 39.4%
viability, T/C [9]: 29.9%
viability, T/C [10]: 25.8%
viability, T/C [11]: 20.2%
viability, T/C [12]: 18.8%
viability, T/C [13]: 37%
viability, T/C [14]: 34.2%
viability, T/C [15]: 28.9%
viability, T/C [16]: 23.1%
viability, T/C [17]: 21.3%
viability, T/C [18]: 17.9%
viability, T/C [19]: 34.9%
viability, T/C [20]: 37.1%
viability, T/C [21]: 34.2%
viability, T/C [22]: 26.1%
viability, T/C [23]: 23.3%
viability, T/C [24]: 16.6%

NC1c2ccccc2OC12CCN(c1cnc3c(N4CCCc5ncccc54)n[nH]c3n1)CC2 (stereo unspecified) + C#Cc1c(F)ccc2cc(O)cc(-c3ncc4c(N5CC6CCC(C5)N6)nc(OCC56CCCN5CC(F)C6)nc4c3F)c12
IC50 (second compound 0.0316 µM): 281 nM
IC50 (second compound 0.1 µM): 268 nM
IC50 (second compound 0.316 µM): 175 nM
IC50 (second compound 1 µM): 57 nM
IC50 (second compound 3.16 µM): < 31.6 nM
IC50 (second compound 10 µM): < 31.6 nM
viability, T/C [1]: 69.3%
viability, T/C [2]: 76.8%
viability, T/C [3]: 47.3%
viability, T/C [4]: 41.6%
viability, T/C [5]: 35.7%
viability, T/C [6]: 34%
viability, T/C [7]: 74.9%
viability, T/C [8]: 65%
viability, T/C [9]: 45.8%
viability, T/C [10]: 38.6%
viability, T/C [11]: 33.9%
viability, T/C [12]: 30.1%
viability, T/C [13]: 76.3%
viability, T/C [14]: 56.4%
viability, T/C [15]: 40.3%
viability, T/C [16]: 36.4%
viability, T/C [17]: 31.4%
viability, T/C [18]: 22.3%
viability, T/C [19]: 58.4%
viability, T/C [20]: 40.6%
viability, T/C [21]: 32.8%
viability, T/C [22]: 32.4%
viability, T/C [23]: 21.7%
viability, T/C [24]: 19.6%
viability, T/C (second compound 3.16 µM, first compound 0.0316 µM): 38.5%
viability, T/C (second compound 3.16 µM, first compound 0.1 µM): 38.6%
viability, T/C (second compound 3.16 µM, first compound 0.316 µM): 31.5%
viability, T/C (second compound 3.16 µM, first compound 1 µM): 25.2%
viability, T/C (second compound 3.16 µM, first compound 3.16 µM): 21%
viability, T/C (second compound 3.16 µM, first compound 10 µM): 15.5%
viability, T/C (second compound 10 µM, first compound 0.0316 µM): 28.4%
viability, T/C (second compound 10 µM, first compound 0.1 µM): 30.7%
viability, T/C (second compound 10 µM, first compound 0.316 µM): 19%
viability, T/C (second compound 10 µM, first compound 1 µM): 16.2%
viability, T/C (second compound 10 µM, first compound 3.16 µM): 15.5%
viability, T/C (second compound 10 µM, first compound 10 µM): 12.6%
